Patent US10407454B2, “Defined enzymatic synthesis of lipid A analogs” (The Board of Trustees of the Leland Stanford Junior …, priority 2016, dated 2019)

Biological target: T1, TLR4 (Homo sapiens, UniProt O00206+Q9Y6Y9)
T1 construct: endogenous in cells; host or cells: HUVEC
Assay: TLR signaling assay: IL-6 release (ELISA) from LPS-stimulated HUVEC cells pretreated with Lipid IVA or analogs
Format: cell-based
Settings: 1 hour pretreatment, then 100 ng/mL LPS, supernatant 18 hours after LPS, mean ± SD of triplicate wells (LPS only: 425 ± 7)
Experimental: Antagonistic Effect of Unsaturated Lipid IVA. To examine the antagonistic effect of the Lipid IVA analogues produced by our reconstituted system, products from sample 1-3 were assayed against LPS stimulated HUVEC microphage cell line. IL-6 level was measured as an indicator of TLR4 suppression. As a negative control, an in vitro reaction lacking acetyl-CoA was run and processed in parallel. Lipid IVA samples was quantified via mass spectrometry by comparing with a standard curve generated from synthetic Lipid IVA standard. […]
TLR Signaling Assays. HUVECs were grown to approximately 80% confluency in plastic 48-well cell culture plates. Six hours prior to the beginning the assay, medium was aspirated and replaced with 200 μL fresh medium per well. 100× stock dilutions of LPS (in sterile water) and Lipid IVa (in methanol) were freshly prepared from lyophilized solids. Cells were subjected to a 1-hour preincubation with the indicated amounts of Lipid IVa, or Samples 1, 2, or 3, and then LPS (100 ng/mL) was added. Aliquots of the culture supernatant were taken after 18 hours, frozen at −20 C, and then analyzed for IL-6 using a commercial ELISA kit following the manufacturer's (eBioSciences) recommended protocol.

T1 sequence (O00206 24-839): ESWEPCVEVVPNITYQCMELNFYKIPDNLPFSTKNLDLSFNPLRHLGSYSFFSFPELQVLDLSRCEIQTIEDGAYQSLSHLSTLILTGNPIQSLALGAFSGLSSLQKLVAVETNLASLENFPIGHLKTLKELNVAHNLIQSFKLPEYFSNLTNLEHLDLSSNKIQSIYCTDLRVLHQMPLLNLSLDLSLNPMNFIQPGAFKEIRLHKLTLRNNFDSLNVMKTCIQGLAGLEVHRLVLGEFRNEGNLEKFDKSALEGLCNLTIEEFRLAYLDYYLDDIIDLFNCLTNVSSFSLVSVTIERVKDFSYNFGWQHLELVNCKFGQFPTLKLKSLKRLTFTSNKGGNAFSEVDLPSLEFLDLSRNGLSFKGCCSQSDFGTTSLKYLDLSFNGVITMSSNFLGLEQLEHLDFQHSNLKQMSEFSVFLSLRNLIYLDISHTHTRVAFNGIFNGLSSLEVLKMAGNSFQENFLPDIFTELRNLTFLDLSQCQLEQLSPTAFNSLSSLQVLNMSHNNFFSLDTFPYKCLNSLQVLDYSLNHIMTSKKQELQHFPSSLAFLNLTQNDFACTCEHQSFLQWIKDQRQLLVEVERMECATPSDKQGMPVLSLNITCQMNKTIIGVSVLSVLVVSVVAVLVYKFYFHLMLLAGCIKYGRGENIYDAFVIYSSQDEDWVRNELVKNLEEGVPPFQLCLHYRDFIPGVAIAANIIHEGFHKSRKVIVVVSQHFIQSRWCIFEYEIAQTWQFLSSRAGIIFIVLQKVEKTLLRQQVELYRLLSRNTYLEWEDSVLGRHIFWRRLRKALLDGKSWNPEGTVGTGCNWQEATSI
T1 sequence (Q9Y6Y9 19-160): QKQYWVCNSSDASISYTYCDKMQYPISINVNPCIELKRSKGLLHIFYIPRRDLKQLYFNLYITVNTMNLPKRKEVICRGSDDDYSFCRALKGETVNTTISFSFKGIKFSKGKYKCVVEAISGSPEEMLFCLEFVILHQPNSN

Compound: CCCCCCCCCCC[C@@H](O)CC(=O)N[C@H]1[C@H](OC[C@H]2O[C@H](OP(=O)(O)O)[C@H](NC(=O)C[C@H](O)CCCCCCCCCCC)[C@@H](OC(=O)C[C@H](O)CCCCCCCCCCC)[C@@H]2O)O[C@H](CO)[C@@H](OP(=O)(O)O)[C@@H]1OC(=O)C[C@H](O)CCCCCCCCCCC [Lipid IVA]
- [IL-6] (pg/mL) in HUVEC culture supernatant (10 ng/mL compound): 484 ± 25 pg/mL
- [IL-6] (pg/mL) in HUVEC culture supernatant (100 ng/mL compound): 212 ± 33 pg/mL
- [IL-6] (pg/mL) in HUVEC culture supernatant (500 ng/mL compound): 57 ± 3 pg/mL
